Measured values from PubChem BioAssay (NCI).
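In this assay, cells in 96-well plates receive the compound at five concentrations for 48 hours. Endpoints are linearly interpolated between the surrounding concentrations. Abbreviation: GI50, concentration required for 50% inhibition of growth. TGI denotes the concentration required for complete inhibition of growth.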

Legend:
Experiment in all cases: inhibition of tumour cell growth, NCI panel, 48 h
HOP-62 NSCLC = system: HOP-62 NSCLC
TK-10 renal = system: TK-10 renal
MDA-MB-231 breast = system: MDA-MB-231 breast
HL-60(TB) leukemia = system: HL-60(TB) leukemia
BT-549 breast = system: BT-549 breast
HCC-2998 colon = system: HCC-2998 colon
NCI-H522 lung = system: NCI-H522 lung
SK-OV-3 ovarian = system: SK-OV-3 ovarian

Row | SMILES | GI50 (HOP-62 NSCLC) | TGI (HOP-62 NSCLC) | GI50 (TK-10 renal) | TGI (TK-10 renal) | GI50 (MDA-MB-231 breast) | TGI (MDA-MB-231 breast) | GI50 (HL-60(TB) leukemia) | TGI (HL-60(TB) leukemia) | GI50 (BT-549 breast) | TGI (BT-549 breast) | GI50 (HCC-2998 colon) | TGI (HCC-2998 colon) | GI50 (NCI-H522 lung) | TGI (NCI-H522 lung) | TGI (SK-OV-3 ovarian) | GI50 (SK-OV-3 ovarian)
1 | COC(=O)c1cc2oc(/C=C3/SC(=S)N(NC(C)=O)C3=O)cc2n1C | 21.7 µM | 47.3 µM | 26 µM | 97.4 µM | 21.5 µM | 53.2 µM | 38.3 µM | > 100 µM | 6.13 µM | 22.7 µM | 12 µM | 29.5 µM | 16.4 µM | 55.4 µM | – | –
2 | C=C(C)C12OC1[C@@]1(C)C(=CC2=O)CCC(O)[C@@H]1C (stereo not given in full) | – | 11.7 µM | – | > 100 µM | – | 7.11 µM | – | 4.26 µM | – | 50.8 µM | – | 17.6 µM | – | 5.91 µM | – | –
3 | NC(N)=NS(=O)(=O)c1ccc(N=Nc2c(O)c(C(=O)O)cc3ccccc23)cc1 | – | > 100 µM | – | > 100 µM | – | > 100 µM | – | > 100 µM | – | > 100 µM | – | > 100 µM | – | > 100 µM | > 100 µM | –
4 | COc1cc(-c2nn(-c3cccc(NC(=O)c4ccccc4)c3)cc2-c2ccncc2)ccc1Cl | 2.49 µM | > 100 µM | 4.12 µM | > 83.8 µM | 1.06 µM | > 36.9 µM | 0.376 µM | – | 0.98 µM | > 100 µM | 2.13 µM | 33.6 µM | 0.238 µM | – | > 100 µM | 1.19 µM
5 | NC(=S)N/N=C\c1nccc2c(C(F)(F)F)cccc12 | 0.207 µM | 1.4 µM | 0.516 µM | 32.1 µM | 0.281 µM | 17.6 µM | 0.286 µM | 1.19 µM | 0.395 µM | 7.71 µM | 0.411 µM | 15.4 µM | 0.269 µM | 0.805 µM | 5.89 µM | 0.17 µM
6 | COc1cc(-c2nc3sccn3c2-c2ccnc(NCCNS(=O)(=O)c3ccc(F)cc3)n2)ccc1F | 4.82 µM | > 100 µM | 6.27 µM | > 100 µM | 2.35 µM | > 100 µM | 3.4 µM | > 100 µM | 0.292 µM | > 100 µM | 3.21 µM | > 100 µM | 2.12 µM | > 100 µM | > 100 µM | 3.26 µM
7 | CN(C)c1ccc(/C=N/NC(=S)Nc2ccccc2)cc1 | – | > 100 µM | – | > 100 µM | – | > 100 µM | – | – | – | > 100 µM | – | – | – | > 100 µM | > 100 µM | –
8 | C=C(C)C(=O)O[C@@H]1C[C@@]2(C)O[C@@H]2C[C@H](O)/C(C)=C/[C@H]2OC(=O)C(=C)[C@@H]21 | – | > 100 µM | – | > 100 µM | – | > 100 µM | – | – | – | > 100 µM | – | > 100 µM | – | 31.6 µM | > 100 µM | –
9 | Cn1cc(-c2cc3c(N4CCN(c5ncc([C@@](C)(N)c6ccc(F)cc6)cn5)CC4)ncnn3c2)cn1 | 6.31 µM | > 100 µM | – | – | 4.77 µM | > 100 µM | 3.8 µM | > 100 µM | 5.15 µM | > 100 µM | 4.23 µM | > 100 µM | – | – | – | –
10 | CC(=O)OCc1ccc2c(c1)C(O)NC(=O)O2 (stereo not given) | – | > 100 µM | – | > 100 µM | – | > 100 µM | – | > 100 µM | – | > 100 µM | – | – | – | > 100 µM | > 100 µM | –
11 | COc1ccc2ncnc(Nc3ccc(OCc4ccccc4)cc3)c2c1 | 10.6 µM | > 25 µM | 3.68 µM | 18.4 µM | 4.6 µM | 11.1 µM | 7.06 µM | 16.8 µM | 7.91 µM | > 25 µM | 6.42 µM | 18 µM | 4.95 µM | > 17.1 µM | > 23.6 µM | 3.41 µM
12 | CC(=C(c1ccc(OCCN2CCCCC2)cc1)c1ccc(OCCN2CCCCC2)cc1)c1ccc(Cl)cc1 | 0.439 µM | 0.888 µM | 0.384 µM | 0.755 µM | 0.425 µM | 0.806 µM | 0.452 µM | 0.957 µM | 0.414 µM | 0.787 µM | 0.396 µM | 0.755 µM | 0.411 µM | 0.872 µM | 0.806 µM | 0.428 µM
13 | COc1cc2c(cc1OC)-c1cc(OC)c(OC)cc1C(CN(C)C)C2 (stereo not given) | > 10 µM | > 10 µM | > 10 µM | > 10 µM | > 10 µM | > 10 µM | > 10 µM | > 10 µM | > 10 µM | > 10 µM | > 10 µM | > 10 µM | > 10 µM | > 10 µM | > 10 µM | > 10 µM
14 | COc1ccc(CN2C(=O)C(Cl)=C(Nc3cccc(C(F)(F)F)c3)C2=O)cc1 | 18.2 µM | > 100 µM | 16.8 µM | 46.3 µM | 3.39 µM | 18 µM | 2.56 µM | 19.5 µM | 1.58 µM | 14.8 µM | 8.46 µM | 25.9 µM | – | – | 62.2 µM | 8.67 µM
15 | CCNC(=O)C#Cc1ccc2c(C(=Nc3ccc(CN(C)C)cc3)c3ccccc3)c(O)[nH]c2c1 | 0.109 µM | > 3.76 µM | 0.593 µM | > 5.41 µM | 0.0295 µM | 0.502 µM | 0.00976 µM | 0.932 µM | 1.51 µM | > 10 µM | 0.106 µM | 0.696 µM | 1.26 µM | > 5.39 µM | > 10 µM | 1.86 µM
16 | Cc1cc(Nc2ccc(C)c(Cl)c2)n2nc(C(F)(F)F)nc2n1 | 30.8 µM | 98.9 µM | 31.2 µM | 84.8 µM | 23.7 µM | > 100 µM | 22.1 µM | 66.2 µM | 22.9 µM | 57.4 µM | 40.8 µM | > 100 µM | – | – | 96.7 µM | 29.9 µM
17 | Nc1nc2[nH]cc(CCc3ccc(C(=O)N[C@@H](CCC(=O)O)C(=O)O)cc3)c2c(=O)[nH]1 | 0.724 µM | > 100 µM | – | > 100 µM | > 100 µM | > 100 µM | 0.684 µM | > 100 µM | > 71.7 µM | > 100 µM | 0.0576 µM | > 100 µM | – | > 100 µM | > 100 µM | –
